In patent US4687773A, “(+)-N-N-propylnorapomorphine and selective limbic activity” (priority 1985, dated 1987):
Where a name gives a salt, the structure may show the parent alone. Read-outs that look alike come from different tables or passages of the source.

Tests used:
[1] = tested on: dopamine (DA) receptors in the basal ganglia (corpus striatum); assay: Stereotyped licking and gnawing behavior rating in the rat; assay type: in vivo; settings: for SB Score, Percent of Maximum / SB Score (stereotyped behaviors): Table 12, 3 mg/kg ip; for SB Score (stereotyped behaviors): max. possible score 18.0; for stereotyped behavior (in words): rat, in vivo
Source text: Stereotypy: The mean stereotyped licking and gnawing behavioral rating scheme developed by Tarsy and Baldessarini^8 was used. […]
Stereotypy scores were rated for one hour as described in […]

[2] = tested on: dopamine (DA) receptors in the limbic system; assay: Locomotor activity (spontaneous or aroused by (-)APO / (-)NPA), electronic activity monitor; assay type: in vivo, rat; settings: for interaction with (-)APO locomotor arousal (in words) / EAM Score / EAM Score, Percent of Control: Table 11; for interaction with (-)APO locomotor arousal (in words): 3 mg/kg ip with (-)APO; for EAM Score: 60 min; for effect on locomotor-arousal activity (in words): with or without (-) isomer; for increase of the locomotor stimulatory effect of APO: with (-)APO; for Locomotion: Table 4
Experimental: (§1) Activity: Overall motor activity was measured by use of the self-recording Stoelting electronic activity monitor method described previously by Stewart, Campbell, Sperk, and Baldessarini^9. Total activity is obtained by setting monitor sensitivity so as to detect both locomotion and small movements (such as grooming, sniffing, and chewing) as would be prominent in stereotyped responses that tend to diminish locomotion and increase sniffing, licking, and chewing movements. Locomotor activity is detected selectively by setting monitor sensitivity to detect large, locomotor movements, and to minimize smaller movements already described.
Rats (mean N=6 per condition) were tested for locomotor activity for 60 min following a single dose of (-)APO (0.3 mg/kg, SC), or its vehicle ("placebo" condition). The S(+) isomers were administered in a range of doses from 0 or 0.1 to 30 mg/kg, SC immediately following injection of (-)APO or its vehicle. Data are presented in FIG. 2 as mean EAM activity counts per hour SEM. In that figure, the dashed line labeled "control" represents the mean activity of rats given vehicle only and no aporphine (SD values are indicated by parallel light lines above and below the control mean).
Test agents (11substituted-N--propylnoraporphine isomers were given at a
dose of 3 mg/kg, ip (in 2 ml/kg) just prior to (-)apomorphine (APO, at 0.
mg/kg, ip, in 1 ml/kg) to rats (N = 6) tested in an electronic activity

[3] = tested on: dopamine (DA) receptors in the limbic system; assay: Effect of metabolic inhibitor SKF-525A on locomotor effect of (+)MDO-NPA; assay type: in vivo, rat
Experimental: Rats (N = 6) per condition) were tested by monitoring locomotor activity
on an electronic monitor under higharousal conditions (7-8 PM during earl
"lights out" phase, and singly in previously occupied test cages).
Pretreatment was saline (control) or the microsomal inhibitor SKF525A (40
mg/kg, ip). At 30 min later, saline or (+)MDONPA (3 mg/kg, ip) was given,
and the rats were monitored for the next 60 min. Data are activity counts
per hour, as means ± SEM ([*] = significant by ttest at p < 0.05). Th

[4] = tested on: DA in the limbic system (nucleus accumbens septi); assay: Arousal (locomotor activity) induced by DA injected into nucleus accumbens septi; assay type: in vivo, rat; settings: for activity counts (arousal induced by 16 μg DA in accumbens): 30 min, DA control 238 ± 38; for ED50: Rattus norvegicus; for ED50 / ID50: DA 16 μg in accumbens; for ID50: hydrochloride
Experimental: An experiment shown in Table 9 involves testing the effects of S(+) isomers of apomorphine (APO) and N-propylnorapomorphine (NPA) given systemically (intraperitoneally, ip), as well as S(+) methylenedioxy-N-propylnorapomorphine (MDO-NPA) given ip or orally (po, by orogastric intubation). […]. […] Activity was monitored for 30 min after injection of DA into the brain, which was done at 10 min after systemic dosing with an S(+)aporphine test compound.
Data are mean activity counts ± SEM (N = 6) for rats given DA into the
medial accumbens after pretreatment with an inhibitor of monoamine oxidas
(MA0), and monitored on EAM for 30 min (aporphine given 10 min before DA
systemicallyintraperitoneally [ip] or orally [po].

[5] = tested on: DA in the corpus striatum (basal ganglia); assay: Head posture (contralateral head deviation) after intrastriatal DA; assay type: in vivo, rat
[6] = tested on: dopamine (DA) receptors in the limbic system and basal ganglia; assay: Total motor activity, electronic activity monitor (EAM); assay type: in vivo, rat; settings: Table 4
Experimental: as §1
All data presented in the Tables below are expressed as the mean results from 4-6 rats per condition, ±S.E.M. Stereotypy is expressed in rating units (maximum=3.0) and activity is expressed in arbitrary units of percent change, derived from EAM counts per unit time, relative to activity in control (saline) animals set at zero.
All the posttreatment doses of (+)APO were 3.0 mg/kg, s.c. The data
All posttreatment doses of (+)NPA were 3 mg/kg, s.c. The data are similar

[7] = tested on: dopamine (DA) receptors in the limbic system; assay: Locomotor activity (spontaneous or aroused by (-)APO / (-)NPA), electronic activity monitor; assay type: in vivo, rat; settings: Table 4; (-)APO 3.0 mg/kg + saline
[8] = test agent 3 mg/kg ip just prior to (-)APO ip
[9] = test agent 3 mg/kg ip just prior to (-)APO ip, * p < 0.005
[10] = SKF-525A 40 mg/kg ip pretreatment, then S(+)MDO-NPA 3 mg/kg ip
[11] = intrastriatal DA 16 μg, 3 mg/kg ip
[12] = intrastriatal DA 16 μg, 3 mg/kg po
[13] = intrastriatal dopamine 16 μg + systemic saline
[14] = SKF-525A 40 mg/kg ip, then saline

CCCN1CCc2cccc3c2[C@@H]1Cc1cccc(O)c1-3 [(+)11-OH--N--propylnoraporphine, S(+) 11-hydroxy-N-propylnoraporphine hydrochloride and hydrobromide]
SB Score, Percent of Maximum [1]: 6.9% of Maximum
SB Score (stereotyped behaviors) ([1]; one hour): 1.3 ± 0.75
stereotyped behavior (in words) [1]: virtually inactive
interaction with (-)APO locomotor arousal (in words) ([2]; listed as S(+)11-hydroxy-N-propylnoraporphine, hydrobromide, 3 mg/kg): strong inhibitory interaction with APO
interaction with (-)APO locomotor arousal (in words) ([2]; listed as S(+)11hydroxy-N--propylnoraporphine, hydrobromide, 3 mg/kg): significant inhibition of arousal
EAM Score [2, 8]: 218 ± 33
EAM Score, Percent of Control [2, 9]: 43% of Control
effect on locomotor-arousal activity (in words) [2]: exerted similarly selective actions as (+)NPA

CCCN1CCc2cccc3c2[C@@H]1Cc1cccc(OC)c1-3 [(+)11-methoxy-N--propylnoraporphine, S(+) 11-Methoxy-N-propylnoraporphine hydrobromide]
SB Score, Percent of Maximum [1]: 0.0% of Maximum
SB Score (stereotyped behaviors) ([1]; one hour): 0 ± 0
stereotyped behavior (in words) [1]: inactive
interaction with (-)APO locomotor arousal (in words) [2]: devoid of activity
EAM Score [2, 8]: 528 ± 25
EAM Score, Percent of Control [2, 9]: 105% of Control

CCCN1CCc2cccc3c2[C@@H]1Cc1ccc2c(c1-3)OCO2 [(+)MDO-NPA, S(+) 10,11-methylenedioxy-N-propylnoraporphine hydrochloride]
Locomotor Activity [3, 10]: 3445 ± 597 counts/hr
Locomotor Activity (%) [3, 10]: 82%
Locomotor Activity ([3]; saline pretreatment, then S(+)MDO-NPA 3 mg/kg ip): 1828 ± 265 counts/hr
Locomotor Activity (%) ([3]; saline pretreatment, then S(+)MDO-NPA 3 mg/kg ip, * p < 0.05): 43%
activity counts (arousal induced by 16 μg DA in accumbens) ([4]; 0.3 mg/kg ip): 122 ± 16 activity counts
activity counts (arousal induced by 16 μg DA in accumbens) ([4]; 0.3 mg/kg po): 149 ± 23 activity counts
activity counts (arousal induced by 16 μg DA in accumbens) ([4]; 1.0 mg/kg ip): 54 ± 9 activity counts
activity counts (arousal induced by 16 μg DA in accumbens) ([4]; 1.0 mg/kg po): 74 ± 17 activity counts
activity counts (arousal induced by 16 μg DA in accumbens) ([4]; 3.0 mg/kg ip): 36 ± 7 activity counts
activity counts (arousal induced by 16 μg DA in accumbens) ([4]; 3.0 mg/kg po): 49 ± 16 activity counts
ED50 ([4]; ip, read-out: ID50, ip): 0.27 mg/kg
ED50 ([4]; po, read-out: ID50, po): 0.51 mg/kg
ID50 ([4]; ip): 0.3 mg/kg
ID50 ([4]; po): 0.5 mg/kg
effect on arousal induced by DA in accumbens (in words) ([4]; rat, in vivo): also active after systemic oral administration, selectively, against DA placed in the accumbens but not the striatum
times more potent than (+)APO as inhibitor of DA in the limbic system ([4]; vs (+)APO): 13 times
Contralateral Head Deviation, Percent of Total [5, 11]: 71.7% of Total
Contralateral Head Deviation, Time [5, 11]: 512 ± 96 s
Contralateral Head Deviation, Percent of Total [5, 12]: 70.1% of Total
Contralateral Head Deviation, Time [5, 12]: 505 ± 89 s

CCCN1CCc2cccc3c2[C@H]1Cc1cccc(O)c1-3 [(-)11-OH--N--propylnoraporphine, R(-)11-hydroxy-N-propylnoraporphine]
SB Score, Percent of Maximum [1]: 76.7% of Maximum
SB Score (stereotyped behaviors) ([1]; one hour): 13.8 ± 0.75
stereotyped behavior (in words) ([1]; listed as R(-)11-hydroxy-N-- propylnoraporphine): very active
stereotyped behavior (in words) ([1]; listed as R(-)11-hydroxy-N-propylnoraporphine): striking activity as a DA agonist
increase of the locomotor stimulatory effect of APO ([2]; 3 mg/kg): 51%
EAM Score [2, 8]: 764 ± 58
EAM Score, Percent of Control [2, 9]: 151% of Control

CCCN1CCc2cccc3c2[C@H]1Cc1cccc(OC)c1-3 [(-)11-methoxy-N--propylnoraporphine]
SB Score, Percent of Maximum [1]: 36.1% of Maximum
SB Score (stereotyped behaviors) ([1]; one hour): 6.5 ± 0.50
stereotyped behavior (in words) ([1]; listed as 11-methoxy congener): moderately active
stereotyped behavior (in words) ([1]; listed as R(-)11methoxy analog): had some activity
increase of the locomotor stimulatory effect of APO ([2]; 3 mg/kg): 14%
EAM Score [2, 8]: 574 ± 45
EAM Score, Percent of Control [2, 9]: 114% of Control

CN1CCc2cccc3c2[C@H]1Cc1ccc(O)c(O)c1-3 [(-)APO, R(-)apomorphine]
Total Activity ([6]; (-)APO 0.3 mg/kg + saline): 42.2 ± 8.5 percent change
Total Activity ([6]; (-)APO 1.0 mg/kg + saline): 51.9 ± 6.8 percent change
Total Activity ([6]; (-)APO 3.0 mg/kg + saline): 75.3 ± 8.6 percent change
mean control stereotypy score, % of maximum ([1]; (-)APO 0.3 mg/kg IP + vehicle): 51.3 % of maximum
mean control stereotypy score ([1]; (-)APO 0.3 mg/kg IP + vehicle, one hour, maximum possible score 18.0): 9.23 ± 0.43
approximate ED50 (stereotyped behavior) ([1]; (-)APO, IP, rats): ~0.3 mg/kg
Stereotypy Score ([1]; Table 1, (-) isomer 3 mg/kg, s.c., ± saline, maximum 3.0): 3.0 ± 0.0 rating units
Stereotypy Score ([1]; Table 4, (-)APO 0.3 mg/kg + saline): 1.62 ± 0.23 rating units
Stereotypy Score ([1]; Table 4, (-)APO 1.0 mg/kg + saline): 2.09 ± 0.36 rating units
Stereotypy Score ([1]; Table 4, (-)APO 3.0 mg/kg + saline): 2.92 ± 0.20 rating units
Locomotion [7]: 48.6 ± 9.3 percent change
Locomotion ([2]; (-)APO 0.3 mg/kg + saline): 63.5 ± 12.3 percent change
Locomotion ([2]; (-)APO 1.0 mg/kg + saline): 75.8 ± 19.4 percent change
EAM Score, Percent of Control ([2]; (-)APO alone (control)): 100% of Control
EAM Score ([2]; (-)APO alone (control), ip): 505 ± 55

NCCc1ccc(O)c(O)c1 [DA, dopamine]
Contralateral Head Deviation, Percent of Total [5, 13]: 59.0% of Total
Contralateral Head Deviation, Time [5, 13]: 425 ± 53 s

CN1CCc2cccc3c2[C@@H]1Cc1cccc(O)c1-3 [S(+) 11-hydroxyaporphine, S(+) 11-hydroxyaporphine (N-R=N-methyl)]
effect on locomotor-arousal activity (in words) [2]: less active

CCCC(C(=O)OCCN(CC)CC)(c1ccccc1)c1ccccc1 [SKF-525A]
Locomotor Activity [3, 14]: 4777 ± 610 counts/hr
Locomotor Activity (%) [3, 14]: 113%
